System: σ-receptor
Assay: not given
Details: cited from earlier work

For `O=C(CCCN1CCC(O)(c2ccc(Cl)cc2)CC1)c1ccc(F)cc1` [haloperidol], the “affinity to σ-receptor (background, in words)” value (“affinity to σ-receptor” below) is given as “bind strongly with σ-receptor”.

Same assay, conditions: prior art; cited from earlier work

For haloxon, the “affinity to σ-receptor” value is listed as “no affinity to σ-receptor”.
For `C[C@@H]1CN(CCCn2c3ccccc3c3ccccc32)C[C@H](C)N1` [limcazol], the “affinity to σ-receptor” value is listed as “show affinity to σ-receptor”.
In the case of `OC(CCCN1CCN(c2ncc(F)cn2)CC1)c1ccc(F)cc1` (stereo not drawn) [BMY-14802], the “affinity to σ-receptor” value is given as “show affinity to σ-receptor”.
For `c1ccc(C2(N3CCCCC3)CCCCC2)cc1` [phencyclidine], the “affinity to σ-receptor” value is listed as “has affinities for σ-receptor”.

System: apomorphine induced climbing
Assay: Suppressive action on apomorphine induced climbing (Table 2)
Assay type: in vivo, ICR mice, male
Details: hydrochloride; 30 mg/kg, p.o.; 1 hour before apomorphine 2 mg/kg s.c.; climbing observed 3 minutes after 20-23 minutes
Procedure: Administering dopamine agohist, apomorphine in mouse resulted various abnormal behaviors, and especially, a climbing the cage has been known to be correlated with human schizophrenia. Therefore, a drug showing suppressire activity for apomorphine induced climbing in mice can be presumed to be effective as antischizophrenia activity on humans.
The compounds of the present invention were administered orally in ICR mice, male (Charles River Corp.), and after 1 hour, apomorphine 2 mg/kg was administered subcutaneously. Climbing behaviors of 3 minutes after 20-23 minutes of apomorphine administration were observed. Climbing behavior was observed by entering the mice in stainless steel made wire netting cage and measuring time remaining above the upper part of half part of the cage at observing. A climbing time of apomorphine single administered group is set as 100% and shortened time by administering the drug is shown in suppression rate.

Compared with `C1C2CC3CC1CC(C2)C3CCN1CC2CC3CC(C2)CC1C3` (stereo not drawn) [Example 7, 4-[2-(2-adamantyl)ethyl]-4-azatricyclo[4.3.1.1^3.8] undecane], `OC12CC3CC(C1)C(CCN1CC4CC5CC(C4)CC1C5)C(C3)C2` (stereo not drawn) [Example 8, 4-[2-(5-hydroxy-2-adanaantyl)ethyl]-4-azatricyclo[4.3.1.1^3.8] undecane] is higher in Suppressive rate: 60% for the first, 78% for the second.

For `C1CC2CCC1CN(CCC1C3CC4CC(C3)CC1C4)C2` (stereo not drawn) [Example 1, 3-[2-(2-adamantyl)ethyl]-3-azabicyclo[3.2.2] nonane], the Suppressive rate was 62%.

Target: σ-receptor
Assay: σ-receptor binding, [^3 H] DTG displacement on rat brain membranes (Table 1)
Set-up: species or system Sprague-Dowley rats
Details: hydrochloride; [^3 H] DTG 3 nM, 25° C., 60 minutes; rat brain membrane; read-out: Sigma [^3 H] DTG Ki

First: CC12CC3CC(C1)CC(CCN1CC4CCC(CC4)C1)(C3)C2 [Example 6, 3-[2-(3-methyl-l-adamantyl)ethyl]-3-azabicyclo[3.2.2] nonane]
Second: C1CC2CCC1CN(CCC13CC4CC(CC(C4)C1)C3)C2 [Example 5, 3-[2-(1-adamantyl)ethyl]-3-azabicyclo[3.2.2] nonane]
The Ki of the first is 2.4-fold higher: 0.45 nM for the first, 0.19 nM for the second. The second binds more tightly here.

`C1C2CC3CC1CC(C2)N(CCC12CC4CC(CC(C4)C1)C2)C3` [Example 11, 4-[2-(1-adamantyl)ethyl]-4-azatricyclo[4.3.1.1^3.8] undecane] and `CC12CC3CC(C1)CC(CCN1CC4CC5CC(C4)CC1C5)(C3)C2` [Example 12] are within 1.5-fold of each other in Ki: 0.2 nM for the first, 0.29 nM for the second.

Going from `ClC12CC3CC(C1)C(CCN1CC4CC5CC(C4)CC1C5)C(C3)C2` (stereo not drawn) [Example 9, 4-[2-(5-chloro-2-adamantyl)ethyl]-4-azatricyclo[4.3.1.1^3.8] undecane] to `OC12CC3CC(C1)C(CCN1CC4CC5CC(C4)CC1C5)C(C3)C2` (stereo not drawn) [Example 8, 4-[2-(5-hydroxy-2-adanaantyl)ethyl]-4-azatricyclo[4.3.1.1^3.8] undecane], the Ki rises from 0.55 nM to 1.23 nM (2.2-fold).

Compared with `C1C2CC3CC1CC(C2)C3CCN1CC2CC3CC(C2)CC1C3` (stereo not drawn) [Example 7, 4-[2-(2-adamantyl)ethyl]-4-azatricyclo[4.3.1.1^3.8] undecane], `COC12CC3CC(C1)C(CCN1CC4CC5CC(C4)CC1C5)C(C3)C2` (stereo not drawn) [Example 10, 4-[2-(5-methoxy-2-adamantyl)ethyl]-4-azatricyclo[4.3.1.1^3.8] undecane] is 2.4-fold higher in Ki: 0.26 nM for the first, 0.63 nM for the second.

First: ClC12CC3CC(C1)C(CCN1CC4CCC(CC4)C1)C(C3)C2 (single isomer, unassigned) [Example 3, 3-[2-(5-chloro-2-adamantyl)ethyl]-3-azabicyclo[3.2.2] nonane]
Second: OC12CC3CC(C1)C(CCN1CC4CCC(CC4)C1)C(C3)C2 (single isomer, unassigned) [Example 2, 3-[2-(5-hydroxy-2-adamantyl)ethyl]-3-azabicyclo[3.2.2] nonane]
The Ki of the first is 1.9-fold lower: 0.27 nM for the first, 0.5 nM for the second.

First: C1CC2CCC1CN(CCC1C3CC4CC(C3)CC1C4)C2 (stereo not drawn) [Example 1, 3-[2-(2-adamantyl)ethyl]-3-azabicyclo[3.2.2] nonane]
Second: COC12CC3CC(C1)C(CCN1CC4CCC(CC4)C1)C(C3)C2 (single isomer, unassigned) [Example 4, 3-[2-(5-methoxy-2-adamantyl)ethyl]-3-azabicyclo[3.2.2] nonane]
The Ki of the first is 3-fold lower: 0.34 nM for the first, 1.03 nM for the second. The first binds more tightly here.

Same assay, conditions: radioactive ligand for σ-receptor, used in Ki calculation; read-out: Kd (concentration of affinity of radioactive ligand for receptor)

For `Cc1ccccc1NC(=N)Nc1ccccc1C` [radioactive ligand, [^3 H] 1,3-di(2-tolyl) guanidine, reference compound], the Kd was 10.6 nM.
